From patent US12162867B2, “Inhibitors of RNA helicase DHX9 and uses thereof” (ACCENT THERAPEUTICS, INC., priority 2022, dated 2024)
Read-outs that look alike come from different tables or passages of the source.

How the values were obtained:
Format in all cases: cell-based
[1] = tested on: NCI-H747 cells; assay: DHX9 cellular proliferation assay (CellTiter-Glo), NCI-H747 (CRC-MSS); conditions: Homo sapiens, performed at Pharmaron, read-out: H747 (CRC-MSS) Antiproliferative IC50
[2] = tested on: circBRIP1 in HCT116 cells; assay: DHX9 circBRIP1 cellular target engagement TaqMan Multiplex assay (qPCR); conditions: Homo sapiens, read-out: DHX9 Cellular Target Engagement EC50
[3] = tested on: LS411N cells; assay: DHX9 cellular proliferation assay (CellTiter-Glo), LS411N (CRC-MSI); conditions: Homo sapiens, LS-411N, LS411N, performed at Pharmaron, read-out: LS411N (CRC-MSI-H) Antiproliferative IC50
[4] = HCT-116, circBRIP1, HCT116 cells, * Taqman assay was used
[5] = HCT-116, 72 h, circBRIP1, HCT116 cells, 72 hours, Taqman assay (marked *)

SMILES | IC50 ([1]; NCI-H747, NCI-H747) [nM] | EC50 [2, 4] [nM] | IC50 [3] [nM] | IC50 ([1]; NCI-H747, NCI-H747, CRC-MSS) [nM] | EC50 [2, 5] [nM] | IC50 ([3]; CRC-MSI-H) [nM]
Cc1cc(C(=O)Nc2cc(Cl)cc(NS(C)(=O)=O)c2)cn1-c1ncc(N2CC(C(F)(F)F)C2)cn1 [Example 694] | 7770 | 90 | 80.4 |  |  | 
CC(C)(C)Oc1cnc(-c2cc(C(=O)Nc3cc(Cl)cc(NS(C)(=O)=O)c3)sc2CO)nc1 [Example 686] | 4630 | 47.7 | 132 |  |  | 
Cc1cc(C(=O)Nc2cc(Cl)cc(NS(C)(=O)=O)c2)cn1-c1ncc(N2CC3(C2)CC(F)(F)C3)cn1 [Example 413] | 2170 | 42.1 | 138 |  |  | 
Cn1cc(C(=O)Nc2cc(Cl)cc(NS(C)(=O)=O)c2)cc1-c1ccc(N2CCCC2)cn1 [Example 402] | 7050 | 68.6 | 167 |  |  | 
CCS(=O)(=O)Nc1cc(Cl)cc(NC(=O)c2cc(-c3ccc(N4CC(F)(F)C4)cn3)n(C)c2)c1 [Example 403] | 7410 | 100 | 230 |  |  | 
Cc1sc(C(=O)Nc2cc(Cl)cc(NS(C)(=O)=O)c2)cc1-c1ncc(N2CC(F)(F)C2)cc1OC(F)F [Example 536] | 6800 | 49 | 70.4 |  |  | 
COc1cc(C(F)(F)F)cnc1-c1cc(C(=O)Nc2cc(Cl)cc(NS(C)(=O)=O)c2)sc1C [Example 550] | 3640 | 105 | 352 |  |  | 
Cn1cc(C(=O)Nc2cc(Cl)cc(NS(C)(=O)=O)c2)cc1-c1ncc(N2CC(F)C2)cn1 [Example 598] | > 10000 | 50.6 | 174 |  |  | 
Cc1sc(C(=O)Nc2cc(Cl)cc(NS(C)(=O)=O)c2)cc1-c1ncc(OC(C)(C)CO)cn1 [Example 678] | 3100 | 18.7 | 391 |  |  | 
Cc1cc(C(=O)Nc2cc(Cl)cc(NS(C)(=O)=O)c2)cn1-c1ccc(N2CC3COCC3C2)cn1 (stereo not drawn) [Example 405] | > 10000 | 26.1 | 116 |  |  | 
Cc1sc(C(=O)Nc2cc(Cl)cc(NS(C)(=O)=O)c2)cc1-c1ccc(N2CCN(C(=O)C3CC3)CC2)cn1 [Example 590, N-(3-chloro-5-methanesulfonamidophenyl)-4-[5-(4-cyclopropanecarbonylpiperazin-1-yl)pyridin-2-yl]-5-methylthiophene-2-carboxamide] | > 10000 | 33.7 | 533 |  |  | 
Cc1sc(C(=O)Nc2cc(Cl)cc(NS(C)(=O)=O)c2)cc1-c1ncc(OC(C)(C)C)cc1F [Example 381] |  |  |  | 965 | 183 | 347
CCS(=O)(=O)Nc1cc(Cl)cc(NC(=O)c2cc(-c3ncc(N4CC(F)C4)cn3)c(C)s2)c1 [Example 509] | 5890 | 17.7 | 73.1 |  |  | 
Cn1cc(C(=O)Nc2cc(Cl)cc(NS(C)(=O)=O)c2)cc1-c1ncc(N2CC3(C2)CC(F)(F)C3)cc1F [Example 702] | 8120 | 31.6 | 224 |  |  | 
Cn1cc(C(=O)Nc2cc(Cl)cc(NS(C)(=O)=O)c2)cc1-c1ncc(OC2CN(CC(F)(F)F)C2)cc1F [Example 615] | 7560 | 133 | 71.3 |  |  | 
Cc1cc(C(=O)Nc2cc(Cl)cc(NS(C)(=O)=O)c2)cn1-c1ccc(N2CCC3(CC3)C2)cn1 [Example 522] | > 10000 | 109 | 211 |  |  | 
CCS(=O)(=O)Nc1cc(Cl)cc(NC(=O)c2cc(-c3ncc(OC(C)C)cn3)c(C)s2)c1 [Example 565] | 3010 | 56.5 | 58.2 |  |  | 
Cn1cc(C(=O)Nc2cc(Cl)cc(NS(C)(=O)=O)c2)cc1-c1ccc(OC(C)(C)C)cn1 [Example 555] | 4470 | 46.6 | 121 |  |  | 
Cc1sc(C(=O)Nc2cc(Cl)cc(NS(C)(=O)=O)c2)cc1-c1ccc(N2CC(C(F)(F)F)C2)cn1 [Example 496] | 2020 | 23.3 | 48.2 |  |  | 
Cc1cc(C(=O)Nc2cc(Cl)cc(NS(C)(=O)=O)c2)cn1-c1ncc(N2CC(F)(F)C2)cc1OCC(F)(F)F [Example 708] | 6460 | 92.6 | 140 |  |  | 
Cc1sc(C(=O)Nc2cc(Cl)cc(NS(C)(=O)=O)c2)cc1-c1ncc(N2CCC3(CC2)COC3)cc1F [Example 474] | 6630 | 13.5 | 87.2 |  |  | 
CCS(=O)(=O)Nc1cc(Cl)cc(NC(=O)c2cc(-c3ncc(OC)cc3F)c(C)s2)c1 [Example 360] |  |  |  | 7070 | 52.1 | 235
Cn1cc(C(=O)Nc2cc(Cl)cc(NS(C)(=O)=O)c2)cc1-c1ncc(N2CCC3(C2)CC3(F)F)cn1 (stereo not drawn) [Example 494] | > 10000 | 42.9 | 129 |  |  | 
COc1cc(F)cnc1-c1cc(C(=O)Nc2cc(Cl)cc(NS(C)(=O)=O)c2)sc1C [Example 351] |  |  |  | > 10000 | 28.6 | 82

SMILES | IC50 ([1]; NCI-H747, NCI-H747) [nM] | EC50 [2, 4] [nM] | IC50 [3] [nM] | IC50 ([1]; NCI-H747, NCI-H747, CRC-MSS) [nM] | EC50 [2, 5] [nM] | IC50 ([3]; CRC-MSI-H) [nM]
Cc1sc(C(=O)Nc2cc(Cl)cc(NS(C)(=O)=O)c2)cc1-c1ncc(N2CC(F)(F)C2)cc1OCC(F)(F)F [Example 707] | 5360 | 25.4 | 68.5 |  |  | 
CCOc1cnc(-c2cc(C(=O)Nc3cc(Cl)cc(NS(C)(=O)=O)c3)cn2C)c(F)c1 [Example 453] | 6550 | 54.6 | 218 |  |  | 
Cn1cc(C(=O)Nc2cc(Cl)cc(NS(C)(=O)=O)c2)cc1-c1ncc(N2CCC(F)(F)CC2)cc1F [Example 469] | 3790 | 83.8 | 522 |  |  | 
Cc1cc(C(=O)Nc2cc(Cl)cc(NS(C)(=O)=O)c2)cn1-c1ncc(OC(C)(C)C)cn1 [Example 664] | > 10000 | 71.9 | 163 |  |  | 
Cc1sc(C(=O)Nc2cc(Cl)cc(NS(C)(=O)=O)c2)cc1-c1ncc(N2CCC3(C2)CC3(F)F)cc1F (stereo not drawn) [Example 480] | > 10000 | 55.8 | 150 |  |  | 
Cc1sc(C(=O)Nc2cc(Cl)cc(NS(C)(=O)=O)c2)cc1-c1ccc(OC(C)(C)C)cn1 [Example 380] |  |  |  | 3620 | 25.1 | 54.1
Cc1sc(C(=O)Nc2cc(Cl)cc(NS(C)(=O)=O)c2)cc1-c1ncc(OC2CNC2)cn1 [Example 636, 4-[5-(azetidin-3-yloxy)pyrimidin-2-yl]-N-(3-chloro-5-methanesulfonamidophenyl)-5-methylthiophene-2-carboxamide] | > 10000 | 300 | 1210 |  |  | 
COC(=O)N1CCN(c2cnc(-c3cc(C(=O)Nc4cc(Cl)cc(NS(C)(=O)=O)c4)cn3C)c(F)c2)CC1 [Example 464] | > 10000 | 17.2 | 247 |  |  | 
Cc1sc(C(=O)Nc2cc(Cl)cc(NS(C)(=O)=O)c2)cc1-c1ccc(C2CN(CC(F)(F)F)C2)cn1 [Example 710] | 5400 | 10.7 | 48.1 |  |  | 
Cn1cc(C(=O)Nc2cc(Cl)cc(NS(C)(=O)=O)c2)cc1-c1ncc(F)cc1C#N [Example 546] | > 10000 | 109 | 1090 |  |  | 
CC(C)Oc1ccc(-c2csc(C(=O)Nc3cc(Cl)cc(NS(C)(=O)=O)c3)c2)nc1 [Example 459] | 2660 | 58.2 | 93.7 |  |  | 
Cn1cc(C(=O)Nc2cc(Cl)cc(NS(C)(=O)=O)c2)cc1-c1ncc(N2CCC(F)(F)C2)cc1F [Example 525] | 1350 | 43 | 144 |  |  | 
Cc1sc(C(=O)Nc2cc(Cl)cc(NS(C)(=O)=O)c2)cc1-c1ncc(N2CC(F)(F)C2)cc1C#N [Example 715] | 9760 | 14.4 | 69.9 |  |  | 
Cc1sc(C(=O)Nc2cc(Cl)cc(NS(C)(=O)=O)c2)cc1-c1ncc(OCC(F)(F)F)cn1 [Example 706] | 3880 | 51.7 | 243 |  |  | 
Cc1sc(C(=O)Nc2cc(Cl)cc(NS(=O)(=O)CCO)c2)cc1-c1ncccc1OCc1cncc(F)c1 [Example 626] | > 10000 | 24.1 | 137 |  |  | 
Cn1cc(C(=O)Nc2cc(Cl)cc(NS(C)(=O)=O)c2)cc1-c1ccc(C2CCN(CC(F)(F)F)CC2)cn1 [Example 619] | 3620 | 84.5 | 178 |  |  | 
Cc1sc(C(=O)Nc2cc(Cl)cc(NS(C)(=O)=O)c2)cc1-c1ncc(N2CC3C(C2)C3(C)C)cc1F (stereo not drawn) [Example 476] | 4140 | 108 | 140 |  |  | 
CC(C)Oc1cnc(-c2csc(C(=O)Nc3cc(Cl)cc(NS(C)(=O)=O)c3)c2)nc1 [Example 457] | 4800 | 85.3 | 76.1 |  |  | 
Cc1sc(C(=O)Nc2cc(Cl)cc(NS(C)(=O)=O)c2)cc1-c1ncc(F)cc1OCc1cnco1 [Example 732] | 4570 | 26.1 | 34.1 |  |  | 
CCS(=O)(=O)Nc1cc(Cl)cc(NC(=O)c2cc(-c3ncc(N4CC(F)(F)C4)cn3)c(C)s2)c1 [Example 463] | > 10000 | 18 | 59.3 |  |  | 
Cn1cc(C(=O)Nc2cc(Cl)cc(NS(C)(=O)=O)c2)cc1-c1ncc(OC(C)(C)C)cc1F [Example 557] | 2300 | 92.6 | 131 |  |  | 
COc1cc(N2CC(F)(F)C2)cnc1-c1cc(C(=O)Nc2cc(Cl)cc(NS(C)(=O)=O)c2)sc1C [Example 535] | > 10000 | 4.7 | 93.3 |  |  | 
CS(=O)(=O)Nc1cc(Cl)cc(NC(=O)c2cc(-c3ncc(F)cc3OCc3cncnc3)n(CC(F)(F)F)c2)c1 [Example 735] | > 10000 | 77.2 | 306 |  |  | 
